Results on eight compounds are retold here after patent US7517909B2, “Amino acids with affinity for the α2δ-protein” (Pfizer Inc, priority 2002, dated 2009).

For data set [1], the target named is T1, α2δ-subunit of a calcium channel (Sus scrofa, UniProt A0A287BIN3).
T1 construct: the α2δ-subunit derived from porcine brain tissue was used; from tissue; host or cells: porcine brain tissue
As to the kind of experiment: radioligand binding assay using [3H]-gabapentin. Conditions: α2δ-subunit derived from porcine brain tissue. An excerpt: The ability of compounds of the present invention to bind to the α2δ-subunit of a calcium channel can be determined using the following binding assay.
The radioligand binding assay using [^3H]-gabapentin and the α2δ-subunit derived from porcine brain tissue was used (See, Gee, Nicolas S et at “The novel anticonvulsant drug, gabapentin (Neurontin), binds to the α2δ subunit of a calcium channel”. J. Biol. Chem. (1996), 271(10), 5768-76). Compounds of the invention bind with nanomolar to micromolar affinity for the α2δ protein.

SMILES strings stand for the structures. Where a name gives a salt, the structure may show the parent alone.

T1 sequence (A0A287BIN3 25-1109): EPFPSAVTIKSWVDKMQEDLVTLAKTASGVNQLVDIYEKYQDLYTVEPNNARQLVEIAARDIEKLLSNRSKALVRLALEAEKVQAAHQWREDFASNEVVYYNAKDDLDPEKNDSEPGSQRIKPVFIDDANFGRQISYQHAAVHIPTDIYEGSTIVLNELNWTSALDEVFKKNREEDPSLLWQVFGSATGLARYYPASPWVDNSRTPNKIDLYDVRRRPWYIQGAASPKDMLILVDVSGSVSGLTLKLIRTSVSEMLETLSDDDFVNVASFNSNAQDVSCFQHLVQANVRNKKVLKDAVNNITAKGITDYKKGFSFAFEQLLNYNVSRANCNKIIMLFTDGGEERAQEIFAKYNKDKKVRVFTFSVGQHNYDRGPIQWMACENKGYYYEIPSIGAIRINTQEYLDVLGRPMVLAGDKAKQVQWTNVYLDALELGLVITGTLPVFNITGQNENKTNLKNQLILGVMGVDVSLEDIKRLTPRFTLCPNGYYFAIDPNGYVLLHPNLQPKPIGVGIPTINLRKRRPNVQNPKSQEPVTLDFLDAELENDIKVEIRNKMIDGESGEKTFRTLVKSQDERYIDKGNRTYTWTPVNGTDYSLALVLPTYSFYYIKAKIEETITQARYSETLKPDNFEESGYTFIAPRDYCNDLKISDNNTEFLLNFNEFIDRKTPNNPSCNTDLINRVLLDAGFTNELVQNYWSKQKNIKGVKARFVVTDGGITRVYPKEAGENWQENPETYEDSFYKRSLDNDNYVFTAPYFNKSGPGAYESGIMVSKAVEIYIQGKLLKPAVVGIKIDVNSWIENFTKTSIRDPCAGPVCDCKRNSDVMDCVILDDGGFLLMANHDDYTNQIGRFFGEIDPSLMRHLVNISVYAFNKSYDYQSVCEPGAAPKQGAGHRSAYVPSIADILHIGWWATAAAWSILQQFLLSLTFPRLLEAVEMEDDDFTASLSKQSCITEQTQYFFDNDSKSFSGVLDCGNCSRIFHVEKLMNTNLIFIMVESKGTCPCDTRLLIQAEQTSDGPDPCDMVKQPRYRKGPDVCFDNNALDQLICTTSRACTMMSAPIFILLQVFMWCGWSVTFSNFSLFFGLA

With `CCC[C@@H](C)C[C@H](N)CC(=O)O.Cl`, the melting point (as a rule, the temperature, or range, at which the solid turns liquid) lay within 142.5 to 142.7 °C.
Still for that read-out and setting: under `CCCC[C@@H](C)C[C@H](N)CC(=O)O` (as salt: hydrochloride) stands 142.5 to 143.3 °C; under `CCCC(C)(C)C[C@H](N)CC(=O)O` (as salt: hydrochloride), 194.2 to 195.2 °C; under `CCC[C@@H](C)C[C@H](CN)C(=O)O` (as salt: hydrochloride) [(2R,4R)-2-Aminomethyl-4-methyl-heptanoic acid], 226.3 to 228 °C.
`CCCC(C)(C)CC(CN)C(=O)O.Cl` (stereo not drawn) [2-Aminomethyl-4,4-dimethyl-heptanoic acid hydrochloride] yielded a melting point of 229.5 to 231 °C. For the same compound, the “affinity to the α2δ protein” value in data set [1] is listed as 83 nM.
On to `CCC[C@@H](C)C[C@H](CN)C(=O)O` [(2R,4R)-2-Aminomethyl-4-methyl-heptanoic acid], for which, in data set [1], the “affinity to the α2δ protein” value was 29 nM.
Same read-out and setting: under `CCC[C@H](C)C[C@H](N)CC(=O)O` [(3S,5S)-3-amino-5-methyl-octanoic acid] stands 1000 nM.
For `CC(C)CCCC(C)C[C@@H](N)CC(=O)O` (stereo partly drawn) [R-3-amino-5,9-dimethyl-decanoic acid], in data set [1], the “affinity to the α2δ protein” value is reported as 527 nM.
